Experimental data published in patent US5447915A, “Terminally blocked antiviral peptides” (priority 1992, dated 1995).
Non-standard residues stand in square brackets, D forms with d. Residues, ends and D or L forms follow the SMILES beside them. *: point of attachment. OBn = c1ccc(CO*)cc1

Experiments:
[1] = system: conjugate formation between HBSCD4-M.23 cells and Daudi cells; conditions: peptide 100 μg/ml, gp120 20 μg/ml
Description: Conjugate formation was assayed using HBSCD4-M.23 cells and cells from the human MHC-expressing cell line Daudi (available from ATCC). The HBSCD4-M.23 cells were labeled with 0.5 μg/ml sulfofluorescein diacetate (Molecular Probes, Eugene, Oreg.) and the Daudi cells were labeled with 40 ng/ml hydroethidine (Polysciences, Warrington, Pa.) and mixed at a 1:2 ratio (HBSCD4-M.23:Daudi) at a total concentration of 1×10^6 cells/mi. Cells were then incubated in 30 μl RPMI 1640 media at 37° C. for at least 90 minutes in the presence or absence of CPF(DD) or CPF(δF) (at concentrations of 100 μg/ml) and gp120 (20 μg/ml). At the end of the incubation, the cells were gently resuspended to preserve conjugates and scored by fluorescence microscopy. Positive conjugates were scored as at least two cells displaying one fluorescent color bound to at least one cell displaying the other fluorescent color. Samples were analyzed blinded as to their identity, and in duplicate, and at least three counts of 100 fluorescein-labeled cells were performed for each sample. The percentage of conjugates scored was calculated as the total number of conjugates scored divided by the total number of conjugates plus free CD4-expressing (fluorescein-labeled) cells.

HIV = assay: Inhibition of HIV infection of CD4-expressing human peripheral blood lymphocytes, p24 antigen; format: cell-based; conditions: peptide 160 μg/ml; human T cells from PBL
Description: These cells were obtained by depleting peripheral blood mononuclear cells isolated by passage through nylon wool [Finberg et al., Science 249: 287-291 (1990)]using antibodies specific for CD8 (OKTS, obtained from ATCC) and CD16 (B73.1, a gift of G. Trinchieri) followed by treatment with antibody-coated magnetic beads [Haregerwoin et al., Nature 340: 309 (1989)]. This treatment enriches the cell population for CD4-expressing human peripheral T cells. Virus was incubated for 1 hour at 37° C. with varying concentrations of CPF(DD), or with CPF(6F) at a concentration of 160 μg/ml. The treated virus preparation was then incubated with cells for 1 hour at 37° C. Cells were washed twice and maintained in RPMI 1640/10% FCS supplemented with interleukin 2 [10 units/ml, Collaborative Research]. Cells were maintained and assayed for p24 production as described above.

[2] = system: IL-2 production in 16CD4-9 T cell hybridoma cells; conditions: peptide 200 μg/ml, gp120 5-10 μg/ml, diluted 20-fold and reconcentrated by ultrafiltration
Description: These gp120 solutions were then diluted 20-fold with PBS and the gp120 reconcentrated by ultrafiltration as described in Example 2. The recovered gp120 solutions were then combined with 1×10^5 16CD4-9 T cell hybridoma cells (available from ATCC) and 2×10^5 Daudi cells and cultured overnight at 37° C. IL-2 was detected in the culture supernatants using a cell proliferation assay [Watson, J. Exp. Med. 150: 1510-1515 (1979)], with the modification that proliferation was detected colorimetrically as the cleavage of 3-(4,5-dimethyl-thiazol)-2,6-diphenyl-tetrazolium bromide (MTT) [Finberg et al., Science 249: 287-291 (1990)].

HIV-1 = conditions: peptide 80 μg/ml; after 4 days of co-cultivation for CPF(DD)
Description: PBL-derived human T cells, infected with HIV-1, were washed extensively with RPMI 1640 media and then 10^4 infected T cells were added to 5×10^5 uninfected H9 cells in the presence or absence of CPF(DD) or CPF(δF) at concentrations of 80 μg/ml. Cells were co-cultivated and maintained at H9 cell densities of 5×10^5 cells/ml and tested after 2, .varies.and 6 days of co-cultivation. The extent of infection of H9 cells was determined by p24 antigen ELISA assay, performed 48 hours after washing the T-cell-H-9 cell mixture free of virus.

[3] = target: T1, human immunodeficiency virus (HIV-1) glycoprotein gp120 (Human immunodeficiency virus type 1 group M subtype B, UniProt P03375); format: binding; conditions: HSBCD4-M.23 cells; for inhibition of gp120 binding to CD4 (corrected mean fluorescence of CD4-expressing cells): gp120 preincubated with peptide 1 hour 37° C., about 50 μM to 900 μM
T1 construct: a solution of gp120 (20 μg/ml) (synthesized in vitro from baculovirus and obtained from MicroGeneSys); purchased MicroGeneSys, West Haven, Conn; host or cells: gp120 from baculovirus expression; CD4 on HSBCD4-M.23 cells (HSB-2 clone transfected with CD4 cDNA)
Description: The peptides prepared as described in Example 1 were characterized as to their ability to bind to the human immunodeficiency virus (HIV-1) glycoprotein gp120. This ability was assayed on the basis of the peptides ability to inhibit binding of gp120 to the human CD4 protein.
On the day of the assay the peptides were diluted 10-fold in phosphate buffered saline (PBS) and 2-fold serial dilutions made into PBS previously adjusted to the same DMSO concentration (10%). 25 μl each of each peptide solution and a solution of gp120 (20 μg/ml) (synthesized in vitro from baculovirus and obtained from MicroGeneSys, West Haven, Conn.) were combined and incubated at 37° C. for 1 hour. A total of 3-5×10^5 HSBCD4-M.23 cells [derived from a clone of the pre-T cell leukemia line HSB-2 (obtained from the American Type Culture Collection (ATCC), Rockville, Md.) which expresses human CD4 as a result of transfaction of CD4 cDNA sequences; Diamond et al., Proc. Natl. Acad. Sci. 87: xxxx (1990)] were pelleted in the walls of a 96-well V-bottom microtiter plate, resuspended with the preincubated gp 120-peptide mixture and allowed to incubate at 4° C. for 1 hour. The cells were then pelleted and resuspended in 50μl of a solution containing rabbit anti-gp120 antibody (diluted 1:400 in PBS; MicroGeneSys, West Haven, Conn.) and incubated at 4° C. for 30 min. The cells were again pelleted, washed with 100 μl PBS and resuspended in 50μl of a solution containing fluorescein isothiocyanate (FITC)-conjugated goat anti-rabbit antibody (diluted 1:20; Tago) and incubated at 4° C. for 30 min. The cells were pelleted and washed as before, and resuspended in 100 μl of a solution containing propidium iodine at a concentration of 25 μg/ml and transferred to tubes containing 400 μl PBS for flow cytometric analysis on an Epics V (Coulter) for FAtScan (Betton-Dickinson,Mountainview, Calif.). Cells were gated on propidium iodide to exclude dead cells. Green fluorescence was collected on the linear amplifier and the mean fluorescence calculated.

COC(=O)C(=O)N1CCC[C@@H]1C(=O)OCc1ccccc1 [CPF(δF), N-carbomethoxylcarbonyl-D-Pro-OBn]
conjugate formation in presence of gp120 preincubated with peptide [1]: does not restrict gp120-mediated inhibition of conjugate formation | kinetics and maximum production of p24 (HIV): does not effect either the kinetics or the maximum production of p24 | IL-2 production in presence of gp120 preincubated with peptide [2]: slight increase in the amount of IL-2 | p24 antigen in supernatant after co-cultivation of infected T cells and uninfected H9 cells (HIV-1): no different from those detected in co-cultures of T cells and H9 cells incubated without peptides | inhibition of gp120 binding to CD4 (corrected mean fluorescence of CD4-expressing cells) [3]: does not inhibit gp120 binding to CD4-expressing human cells

COC(=O)C(=O)N[C@H](Cc1ccccc1)C(=O)OCc1ccccc1 [CPF(δP), N-carbomethoxylcarbonyl-D-Phe-OBn]
inhibition of gp120 binding to CD4 (corrected mean fluorescence of CD4-expressing cells) [3]: does not inhibit gp120 binding to CD4-expressing human cells

O=C(N[C@H](Cc1ccccc1)C(=O)OCc1ccccc1)[C@H]1CCCN1 [(DD) prolylphenylalanylbenzylester] (H-[dP]-[dF]-OBn)
inhibition of gp120 binding to CD4 (corrected mean fluorescence of CD4-expressing cells) [3]: unable to inhibit gp120 binding

N-carbomethoxylcarbonyl-D-Pro-D-Ala-OBn [CPF(F→A)]
concentration giving 50% inhibition of gp120 binding, fold higher than for CPF(LL) ([3]; in comparison with CPF(LL)): 2-5 fold
